Measurements published in US7737256B2, “Antibody against uPA/uPAR” (Fondazione Centro San Raffaele Del Monte Tabor, priority 2001, dated 2010).

What was measured:
THP-1 cells = assay: chemotaxis of THP-1 cells (modified Boyden chambers); type: cell-based, human
Description: (§1) Chemotaxis assays were performed as described (Degryse, 1999) with modified Boyden chambers using filters (5 μm pore size, Corning) treated with collagen I (100 μg/ml) and fibronectin (10 μg/ml, Boehringer Mannheim). 20,000-40,000 cells in serum-free DMEM were added to the upper well while the chemoattractants were added to the lower well. When present, antibodies or desensitizing molecules were pre-incubated with the cells for one hour and were then added to both wells of Boyden chambers during the chemotaxis assay. Migration lasted for […] in the case of THP-1 cells and 4-6 hours for the HEK293 or HEK293/FPRL1 cells. After migration at 37° C., cells remaining on the upper surface of filters were scraped off, the filters were fixed in methanol and stained in a solution of 10% (w/v) crystal violet in 20% (v/v) methanol. The experiments were performed in triplicate and the results presented represent the mean ±SD of the number of cells counted in ten high power fields per filter and are representative of at least three experiments. Random cell migration, i. e. migration in the absence of chemoattractant, was given the arbitrary value of 100%.

HIV-1 in U1 cells = assay: PMA-induced HIV-1 reactivation in U1 cells (RT activity); type: cell-based
Description: Cell Lines p U1 cells were stimulated at the density of 2×10^5 cells per ml in RPMI 1640 (Whittaker M. A. Bioproducts, Walkerville, Md.) containing 10% FCS. Cells were preincubated with uPA, uPAR, suPA, R2, R3, R4, R5 antibodies for 20 min at 37° C. prior to addition of stimuli. U1 parental cell line U937 was used as a control in the transfection experiments. U937 cells were purchased from ATCC and maintained in RPMI 1640 medium in the presence of FCS before and after infection with the X4 HIV-1LAI/IIIB. For infection, cells were seeded at 2×10^5 cells/ml in 96-well flat bottomed plates (Falcon, Becton-Dickinson Labware, Lincoln Park, N.J.) and infected with 1−2×10^7 virus particles diluted from a stock of pelleted virus (Advanced Biotechnology, Inc., Columbia, Md.). After infection, 2 h at 37° C., cells were washed and resuspended in RPMI 1640 medium.
Viral expression was monitored by determination of Mg^2+-dependent Reverse Trascriptase (RT) activity in culture supernatants (Poli, 1990). In particular, 5 microliters of supernatants was added to 25 microliters of a mixture containing poly(A), oligo(dT) (Pharmacia Fine Chemicals, Piscataway, N.J.), MgC12, and 32P-labeled deoxythymidine 5′-triphosphate (dTTP) (Amersham Corp., Arlington Heights, Ill.), and incubated for 2 h at 37°°C. 6 microliters of the mixture was spotted onto DE81 paper, air dried, washed five times in 2× SSC buffer, and two additional times in 95% ethanol. The paper was then dried and counted on a scintillation counter (LS 5000, Beckman Instruments, Inc., Fullerton, Calif.).
For all experiments, culture supernatants were collected every day for five days, in the case of cell line, or every three days for infection of U937 and primary cells. Reagents were replenished every time culture medium was changed. Data representative of one out of three independent experiments are shown. Results are presented as means of triplicate cultures, and the error bar show the standard deviation from the mean.

HEK293 cells = assay: chemotaxis of HEK293 cells; type: cell-based, human; conditions: untransfected HEK293, FIG. 10
Description: (§2) The THP-1 cells used in the present example have been previously described (Resnati, 1996). Human HEK293 cells were kindly donated by Dr. Hal Chapman and human HEK293/FPRL1 from Dr. J. M. Wang. […] HEK293/FPRL1 cells have been generated by transfection of FPRL1 cDNA in HEK293 cells (Murphy, 1996).
as §1, with “Random cell migration, i. e. migration in the absence of chemoattractant, was given the arbitrary value of 100%.” left out

[1] = chemotaxis-promotion by uPAR peptides (data not shown); type: cell-based
[2] = target: FPRL1/LXA4R, seven trans-membrane G-protein-coupled receptor (human) (UniProt P25090); assay: cell-based or functional assay
HEK293/FPRL1 cells = assay: chemotaxis of HEK293 transfected with FPRL1/LXA4R; type: cell-based, human; conditions: FIG. 10
Description: as §2
as §1, with “Random cell migration, i. e. migration in the absence of chemoattractant, was given the arbitrary value of 100%.” left out

[3] = test system: Human peripheral blood monocytes; assay: chemotaxis of peripheral blood monocytes; type: cell-based; conditions: fresh human monocytes, FIG. 13
Description: as §1
THP-1 cells have been described before (Resnati, 1996). […] The purity of the separated populations was determined by flow cytometry analyses with anti-CD14 monoclonal antibodies.

Sequence of UniProt P25090 (P25090 whole entry): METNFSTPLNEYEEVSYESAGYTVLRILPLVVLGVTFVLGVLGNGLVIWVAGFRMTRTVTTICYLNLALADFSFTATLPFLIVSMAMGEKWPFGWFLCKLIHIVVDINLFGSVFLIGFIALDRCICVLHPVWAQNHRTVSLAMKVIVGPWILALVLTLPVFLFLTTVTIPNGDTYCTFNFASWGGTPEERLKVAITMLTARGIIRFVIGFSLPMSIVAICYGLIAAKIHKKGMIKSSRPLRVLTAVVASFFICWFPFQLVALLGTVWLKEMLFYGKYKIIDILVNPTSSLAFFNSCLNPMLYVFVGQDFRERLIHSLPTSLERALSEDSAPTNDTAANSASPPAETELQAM

CSCC[C@H](NC=O)C(=O)N[C@@H](CC(C)C)C(=O)N[C@@H](Cc1ccccc1)C(=O)O [fMLP, formyl-methionyl-leucyl-phenylalanine]
de-sensitization against D2D388-279 and ATF (THP-1 cells; 20 μM): de-sensitized | effect on MCP-1 chemotaxis (de-sensitization) (THP-1 cells; THP-1 cells, FIG. 9B): did not affect | IC50 (THP-1 cells; THP-1 cells, FIG. 9B, read-out: concentration inhibiting D2D388-279 chemotaxis by 50% (de-sensitization)): 10 to 20 µM | effect on MCP-1 chemotaxis (de-sensitization) (THP-1 cells; THP-1 cells, very high concentrations (200 μM)): marginally

ATF: amino terminal fragment of uPA with full receptor-binding and no enzymatic activity
effect on PMA-induced HIV-1 expression (HIV-1 in U1 cells; PMA 10 nM, FIG. 2): fully reproduces the pro-uPA effect | induction of chemotaxis (THP-1 cells; THP-1 cells): induce chemotaxis | chemotactic response of the cells (HEK293 cells): do not respond

AVTYSRSRYLEC (listed as Homo sapiens)
chemotaxis-promotion [1]: active | chemotaxis-promotion after cleavage with plasmin ([1]; peptide cleaved with plasmin, data not shown): destroyed the activity

D2D388-278, D2D3 fragment obtained by cleavage of suPAR with chymotrypsin (from UniProt Q03405 110-300) (receptor)
chemotaxis of HEK293 cells transfected with FPRL1/LXA4R [2]: 0.1 nM

D2D388-279: chymotrypsin-cleaved, soluble, purified form of uPAR endowed with potent chemotactic activity
chemotactic response of the cells (HEK293 cells): do not respond | chemotactic response of the cells (HEK293/FPRL1 cells): respond well | concentration of maximum chemotactic response (HEK293/FPRL1 cells): about 0.1 nM | induction of chemotaxis [3]: induce chemotaxis

MCP-1: monocytes chemotactic protein-1 [reference compound]
induction of chemotaxis (THP-1 cells; THP-1 cells): induce chemotaxis | induction of chemotaxis [3]: induce chemotaxis

SRSRY (listed as Homo sapiens)
chemotaxis-promotion [1]: active

TGF-β [reference compound]
inhibition of PMA-induced HIV-1 replication/expression (HIV-1 in U1 cells; pro-uPA 10 nM, TGF-beta 5 ng/ml, alone or combined, FIG. 4C): 60%

suPAR: recombinant soluble uPAR which specifically binds pro-uPA
effect on the inhibition of PMA-induced HIV-1 expression by pro-uPA (HIV-1 in U1 cells; with pro-uPA, FIG. 2D, FIG. 3): blocked
